What was measured:
Assay in all cases: relative viability (nuclei count vs DMSO), 5 days (fraction); higher = more cells survive
[1] = compound: COc1cc(-c2nn([C@H]3CC[C@H](N4CCN(C(C)=O)CC4)CC3)c3ncnc(N)c23)ccc1NC(=O)c1cc2ccccc2n1C + Nc1nc2[nH]cc(CCc3ccc(C(=O)N[C@@H](CCC(=O)O)C(=O)O)cc3)c2c(=O)[nH]1 [Pemetrexed] (partner 0.2 µM)
In short: (§1)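 Relative viability was taken as the ratio of nuclei in treated wells to nuclei in vehicle wells. Lung cancer cell lines in 1536-well plates received compounds by pin tool one day after seeding, either one drug alone or a fixed anchor-drug dose plus five library-drug doses (not always all listed) in √10 steps. Nuclei were counted on 4× images after 5 days of treatment, and values are medians of duplicate plates.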

[2] = compound: COc1cc(-c2nn([C@H]3CC[C@H](N4CCN(C(C)=O)CC4)CC3)c3ncnc(N)c23)ccc1NC(=O)c1cc2ccccc2n1C + C[C@@H](Oc1cc(-c2cnn(C3CCNCC3)c2)cnc1N)c1c(Cl)ccc(F)c1Cl [Crizotinib] (partner 1 µM)
In short: as §1

[3] = compound: COc1cc(-c2nn([C@H]3CC[C@H](N4CCN(C(C)=O)CC4)CC3)c3ncnc(N)c23)ccc1NC(=O)c1cc2ccccc2n1C + COc1cccc2cc(-c3nc([C@H]4CC[C@H](C(=O)O)CC4)n4ncnc(N)c34)[nH]c12 [OSI-027] (partner 0.5 µM)
In short: as §1

[4] = compound: COc1cc(-c2nn([C@H]3CC[C@H](N4CCN(C(C)=O)CC4)CC3)c3ncnc(N)c23)ccc1NC(=O)c1cc2ccccc2n1C + Nc1ncn([C@H]2C[C@H](O)[C@@H](CO)O2)c(=O)n1 [Decitabine] (partner 2 µM)
In short: as §1

[5] = compound: COc1cc(-c2nn([C@H]3CC[C@H](N4CCN(C(C)=O)CC4)CC3)c3ncnc(N)c23)ccc1NC(=O)c1cc2ccccc2n1C + CC1(C)CCC(c2ccc(Cl)cc2)=C(CN2CCN(c3ccc(C(=O)NS(=O)(=O)c4ccc(N[C@H](CCN5CCOCC5)CSc5ccccc5)c(S(=O)(=O)C(F)(F)F)c4)cc3)CC2)C1 [Navitoclax] (partner 0.5 µM)
In short: as §1

Cell Line | relative viability ([1]; first compound 0.0128 µM) | relative viability ([1]; first compound 0.04048 µM) | relative viability ([1]; first compound 0.128 µM) | relative viability ([1]; first compound 1.28 µM) | relative viability ([2]; first compound 0.0128 µM) | relative viability ([2]; first compound 0.04048 µM) | relative viability ([2]; first compound 0.128 µM) | relative viability ([2]; first compound 1.28 µM) | relative viability ([3]; first compound 0.0128 µM) | relative viability ([3]; first compound 0.04048 µM) | relative viability ([3]; first compound 0.128 µM) | relative viability ([3]; first compound 1.28 µM) | relative viability ([4]; first compound 0.0128 µM) | relative viability ([4]; first compound 0.04048 µM) | relative viability ([4]; first compound 0.128 µM) | relative viability ([4]; first compound 1.28 µM) | relative viability ([5]; first compound 0.0128 µM) | relative viability ([5]; first compound 0.04048 µM) | relative viability ([5]; first compound 0.128 µM) | relative viability ([5]; first compound 1.28 µM)
NCI-H1437 | 0.351 | 0.339 | 0.287 | 0.303 | 1.06 | 0.877 | 0.922 | 0.846 | 0.796 | 0.992 | 0.861 | 0.838 | 0.576 | 0.6 | 0.558 | 0.599 | 1.09 | 1.1 | 1.05 | 1.02
COR-L23 | 0.193 | 0.206 | 0.189 | 0.204 | 0.59 | 0.845 | 0.675 | 0.602 | 0.753 | 0.752 | 0.71 | 0.672 | 0.509 | 0.451 | 0.446 | 0.499 | 0.972 | 1.29 | 0.9 | 0.982
ABC-1 | – | – | – | – | 1.01 | 0.98 | 0.87 | 0.766 | 0.499 | 0.434 | 0.384 | 0.377 | 1.19 | 1.03 | 0.835 | 0.998 | – | – | – | –
NCI-H522 | 1 | 0.939 | 1.14 | 0.822 | – | – | – | – | 0.8 | 0.725 | 0.812 | 0.651 | 0.665 | 0.7 | 0.738 | 0.717 | – | – | – | –
NCI-H838 | 0.254 | 0.262 | 0.224 | 0.221 | 0.809 | 0.854 | 0.759 | 0.534 | 0.38 | 0.375 | 0.422 | 0.359 | 0.484 | 0.505 | 0.518 | 0.432 | 1.26 | 1.18 | 1.23 | 0.859
SW 900 | 0.487 | 0.489 | 0.469 | 0.373 | – | – | – | – | 0.536 | 0.588 | 0.497 | 0.356 | 0.524 | 0.381 | 0.507 | 0.52 | – | – | – | –
A549 | – | – | – | – | 0.854 | 1.02 | 0.686 | 0.719 | – | – | – | – | 0.237 | 0.252 | 0.228 | 0.245 | 1.22 | 1.22 | 1.17 | 1.15
NCI-H1703 | – | – | – | – | 0.585 | 0.73 | 0.496 | 0.206 | – | – | – | – | – | – | – | – | 1.45 | 1.17 | 0.736 | 0.236
LCLC-103H | 0.54 | 0.428 | 0.47 | 0.471 | 1.17 | 1.22 | 0.993 | 1.07 | 0.47 | 0.469 | 0.493 | 0.417 | 0.832 | 0.725 | 0.691 | 0.759 | – | – | – | –
Calu-6 | – | – | – | – | 0.692 | 0.806 | 0.609 | 0.596 | – | – | – | – | – | – | – | – | 0.881 | 0.983 | 0.817 | 0.722
NCI-H358 | 0.188 | 0.187 | 0.173 | 0.166 | 0.563 | 0.619 | 0.586 | 0.368 | 0.645 | 0.618 | 0.508 | 0.28 | 0.224 | 0.206 | 0.246 | 0.167 | – | – | – | –
NCI-H1648 | 0.92 | 0.738 | 0.857 | 0.646 | – | – | – | – | 0.27 | 0.257 | 0.274 | 0.276 | 0.595 | 0.447 | 0.482 | 0.452 | – | – | – | –
EBC-1 | – | – | – | – | 0.193 | 0.198 | 0.24 | 0.185 | – | – | – | – | – | – | – | – | 0.422 | 0.501 | 0.422 | 0.339
NCI-H1299 | – | – | – | – | 0.966 | 1.07 | 0.987 | 1.13 | – | – | – | – | – | – | – | – | 1.06 | 1.15 | 1.08 | 1.13
NCI-H2228 | 0.362 | 0.348 | 0.31 | 0.322 | 0.426 | 0.489 | 0.428 | 0.276 | 0.706 | 0.637 | 0.573 | 0.45 | – | – | – | – | 0.825 | 1.17 | 0.91 | 0.745
NCI-H2342 | 0.762 | 0.821 | 0.781 | 0.771 | – | – | – | – | 0.521 | 0.706 | 0.644 | 0.493 | 0.812 | 0.783 | 0.777 | 0.609 | – | – | – | –
IA-LM | – | – | – | – | 1.02 | 1.07 | 0.903 | 1.1 | – | – | – | – | – | – | – | – | 0.87 | 1.08 | 0.87 | 0.968
NCI-H727 | – | – | – | – | 0.745 | – | 0.626 | 0.587 | 0.591 | – | 0.477 | 0.47 | 0.925 | – | 1.01 | 0.84 | 0.408 | – | 0.463 | 0.289
NCI-H650 | 1.09 | 1.05 | 1.02 | 0.897 | 0.665 | 0.716 | 0.603 | 0.739 | 0.56 | 0.798 | 0.524 | 0.458 | 0.319 | 0.35 | 0.304 | 0.306 | – | – | – | –
NCI-H661 | 0.939 | 0.991 | 0.93 | 0.968 | 1.09 | 1.03 | 1.07 | 1.1 | 0.721 | 0.722 | 0.691 | 0.575 | 0.513 | 0.532 | 0.511 | 0.509 | – | – | – | –
NCI-H1793 | 1.04 | 0.771 | 0.871 | 0.617 | – | – | – | – | 0.369 | 0.177 | 0.237 | 0.186 | 0.55 | 0.468 | 0.509 | 0.364 | 0.5 | 0.571 | 0.332 | 0.258
CAL-12T | 1.39 | 1.21 | 1.15 | 1.12 | 0.621 | 0.818 | 0.581 | 0.413 | 0.638 | 0.497 | 0.7 | 0.461 | – | – | – | – | 1.2 | 1.41 | 1.27 | 1.44
